# Test results published in patent publication US4046914A, “Therapeutically active substituted saturated and mono-and polyunsaturated alkyl-glycerylethers” (Astra Nutrition AB, priority 1975, dated 1977).
# Test system: He La cells
# Test: growth of He La cells (cell counts in Burker chamber)
# Assay type: cell-based
# Procedure: Hank's solution containing 0,5 % hydrolysate of lactalbumin, 7 % calf serum and with 7 ml 0,15 % sodium bicarbonate and 20-40.000 I.U. of penicillin and streptomycin added per 100 ml was used for the cultivation of the He La cells. pH was 7,4 at the beginning of the experiment. The medium was changed 2 times per week. A suspension of He La cells was obtained by treatment with versene. The glycerol ethers were dissolved in the medium in concentrations of 1, 5, 25 and 100 μg/ml. 1,5 ml of cell suspension, containing 10^6 cells/ml, was added to 18,5 ml medium. The growth was registered by counting the cells in a Burker chamber.
smiles,measurement,setting,value
"CCCCCCCCCCCCCCC(COCC(O)CO)OC (centres unmarked) [AII, 1-O-(2-methoxyhexadecyl)-glycerol]",cytostatic action,25 μg/ml,acted clearly cytostatically
same,time to completely suppressed growth,25 μg/ml,about 15 days
same,effect on He La cell growth,"25 μg/ml, 14 days at 37° C",growth inhibiting and later on a cell killing effect
same,Cell counts,"Table II, 5 μg/ml, 1 day, controls 54",201
same,Cell counts,"Table II, 5 μg/ml, 3 days, controls 122",137
same,Cell counts,"Table II, 5 μg/ml, 6 days, controls 186",225
same,Cell counts,"Table II, 25 μg/ml, 1 day, controls 54",206
same,Cell counts,"Table II, 25 μg/ml, 3 days, controls 122",91
same,Cell counts,"Table II, 25 μg/ml, 6 days, controls 186",148
same,Cell counts,"Table II, 100 μg/ml, 1 day, controls 54",157
same,Cell counts,"Table II, 100 μg/ml, 3 days, controls 122",All cells dead
same,Cell counts,"Table II, 100 μg/ml, 6 days, controls 186",All cells dead
same,Cell counts,"Table III, 5 μg/ml, 1 day, controls 78",63
same,Cell counts,"Table III, 5 μg/ml, 2 days, controls 98",113
same,Cell counts,"Table III, 5 μg/ml, 6 days, controls 228",205
same,Cell counts,"Table III, 5 μg/ml, 10 days, controls 359",407
same,Cell counts,"Table III, 25 μg/ml, 1 day, controls 78",64
same,Cell counts,"Table III, 25 μg/ml, 2 days, controls 98",154
same,Cell counts,"Table III, 25 μg/ml, 6 days, controls 228",160
same,Cell counts,"Table III, 25 μg/ml, 10 days, controls 359",272
same,Cell counts,"Table IV, 1 μg/ml, 2 days, controls 138",121
same,Cell counts,"Table IV, 1 μg/ml, 5 days, controls 172",271
same,Cell counts,"Table IV, 1 μg/ml, 8 days, controls 520",598
same,Cell counts,"Table IV, 1 μg/ml, 11 days, controls 757",546
same,Cell counts,"Table IV, 1 μg/ml, 14 days, controls 649",557
same,Cell counts,"Table IV, 5 μg/ml, 2 days, controls 138",113
same,Cell counts,"Table IV, 5 μg/ml, 5 days, controls 172",200
same,Cell counts,"Table IV, 5 μg/ml, 8 days, controls 520",488
same,Cell counts,"Table IV, 5 μg/ml, 11 days, controls 757",546
same,Cell counts,"Table IV, 5 μg/ml, 14 days, controls 649",637
same,Cell counts,"Table IV, 25 μg/ml, 2 days, controls 138",107
same,Cell counts,"Table IV, 25 μg/ml, 5 days, controls 172",107
same,Cell counts,"Table IV, 25 μg/ml, 8 days, controls 520",241
same,Cell counts,"Table IV, 25 μg/ml, 11 days, controls 757",112
same,Cell counts,"Table IV, 25 μg/ml, 14 days, controls 649",0
same,Cell counts,"Table V, 1 μg/ml, 3 days, controls 210",293
same,Cell counts,"Table V, 1 μg/ml, 6 days after transfer, controls 176",169
same,Cell counts,"Table V, 1 μg/ml, 8 days, controls 510",498
same,Cell counts,"Table V, 5 μg/ml, 3 days, controls 210",246
same,Cell counts,"Table V, 5 μg/ml, 6 days after transfer, controls 176",136
same,Cell counts,"Table V, 5 μg/ml, 8 days, controls 510",517
